In US10272056B2, “Treatment for mitochondrial diseases” (The George Washington University a Congressionally …, priority 2015, dated 2019):

Legend:
Tfam = assay: Quantitative immunoblot analysis of Tfam; assay type: cell-based; details: NaBt treatment, PC12-ND6
From the text: FIG. 11A-11D are images from microscopy and graphs showing NaBt promotes mtDNA replication via the NRF-1/Tfam axis. (A) Confocal analysis of mtDNA foci; scale bar=5 (B) Quantitative analysis of mtDNA copy number by PCR; *p<0.001. (C, D) Quantitative immunoblot analysis of NRF-1 and Tfam; *p<0.001.
NaBt enhances mtDNA replication via the PGC1α-mediated NRF-1/Tfam axis. It was investigated whether NaBt enhanced mtDNA replication using the PicoGreen® dye to label mtDNA. PC12-ND6 cells were transfected with the mito-dsRed vector prior to NaBt treatment followed by PicoGreen® staining. […] To corroborate enhanced mitochondrial biogenesis, two key target genes of PGC1α were examined, the NRF-1 transcription factor and its direct target gene Tfam, both essential for mitochondrial biogenesis. […] The findings confirm the NaBt-mediated modulation of mitochondrial biogenesis and mtDNA replication in neuronal cells.

[1] = test system: healthy and MELAS fibroblasts; assay: Dose-dependent studies for optimal safe concentrations; assay type: cell-based, human; details: three days of treatment
From the text: Experimental approaches. Five distinct molecular tools were used to investigate mitochondrial biogenesis: 1) the mitochondrial-specific dyes, MitoTracker® Green (MTG) and MitoTracker® Red (MTR); 2) the mito-GFP or mito-dsRed vector to fluorescently label mitochondria; 3) antibodies against mtDNA, COXVα, or SOD2; 4) the fluorescent PicoGreen® dye labeling mtDNA; and 5) quantitative PCR to determine mtDNA copy number.
(§1) Butyrates rescue the mitochondrial mass, morphology, networking, membrane potential, and cellular ATP levels in MELAS fibroblasts. Skin fibroblasts from two MELAS patients and from a healthy subject as a control were used. Dose-dependent analyses of butyrates to determine their best concentrations for eliciting an optimal mitochondrial response without cellular toxicity was performed. Healthy and MELAS fibroblasts were treated with PBS, NaBt (2.5 mM), TBN (1.5 mM), or AN9 (300 μM) for three days before labeling with the MTG dye for live cell confocal analysis.

MELAS fibroblasts [2] = assay: Mitochondrial mass, morphology and networking (MTG live cell confocal analysis); assay type: cell-based, human; details: three-day exposure; NaBt 2.5 mM, TBN 1.5 mM, AN9 300 μM
From the text: FIG. 17A-17C are images from microscopy and graphs showing that butyrates rescue the mitochondrial phenotype in MELAS fibroblasts. (A) Confocal analysis of healthy and MELAS fibroblasts treated as indicated and labeled with the MTG dye; scale bar=10 (B) Analysis of the mitochondrial mass; n=3 (60 cells per experiment; ^‡p<0.05, unpaired T-test *p<0.05, paired T-test). (C) Analysis of Δψm (^‡p<0.05, unpaired T-test; *p<0.05, paired T-test).
as §1
as §1, with “networking, and” for “networking,”, “potential” for “potential, and cellular ATP levels”, “butyrates was performed” for “butyrates”, “toxicity.” for “toxicity was performed.”

HDAC1-3 enzymes = details: via the HDAC1-3 enzymes; cited from earlier work
MELAS fibroblasts [3] = assay: Relative cellular ATP levels (magnesium green dye); assay type: cell-based, human
Experimental: FIG. 19 is a graph showing that NaBt augments the relative cellular ATP levels in MELAS fibroblasts. The relative cellular ATP content was examined by a fluorescent probe, magnesium green (Mg Gr). MELAS fibroblasts were treated for 6 and 24 hours with NaBt (2.5 m M) before being labeled with Mg-Gr.
To assess relative cellular ATP levels in live MELAS fibroblasts, the fluorescent magnesium green (Mg-Gr) dye, which has been successfully employed in live patient fibroblasts, was used. Fluorescence emission from the Mg-Gr dye is directly proportional to the concentration of intracellular free Mg2+ concentration. Since the affinity of Mg2+ for ATP is about ten times higher than its affinity for ADP or AMP, the fluorescence intensity is inversely correlated with the intracellular levels of ATP. A time course exposure to NaBt ([…]) was performed using MELAS fibroblasts from one patient that has been comprehensively evaluated in terms of mitochondrial mass, mitochondrial membrane potential, and mitochondrial dynamics and networking (FIGS. 17 and 18). […] Thus, butyrates augment the functional mitochondrial mass in dermal MELAS fibroblasts, thereby reversing their deficits in mitochondrial mass and bioenergetics capacity.

MELAS fibroblasts [4] = assay: Affymetrix genome-wide microarray analysis; assay type: cell-based, human
From the text: An embodiment of the novel pharmacological approach described herein uses butyrates to promote nuclear and mitochondrial metabolic reprogramming by boosting mitochondrial biogenesis and maximizing residual ATP output. […] Thus, the data validate a pharmaco-epigenomic approach and establish proof-of-principle. It was hypothesized that butyrates can augment the functional mitochondrial mass in skin fibroblasts from 20 MELAS patients. Fibroblasts from this number of patients, each with different nuclear backgrounds and heteroplasmic loads, will ensure the findings extend beyond a case study into a statistically sound and broadly applicable report. It will be tested whether butyrates: (Aim 1) induce favorable mitochondrial biogenesis, thereby shifting heteroplasmy toward healthy mitochondria; and (Aim 2) maximize ATP output via optimization of OXPHOS activity and a metabolic shift toward fatty acid beta oxidation. It is anticipated to identify the most promising butyrate candidate for alleviating the symptoms of the MELAS disease. The proposed study will set the stage for future clinical studies with the Children's National Medical Center and the North American Mitochondrial Disease Consortium, in concordance with the PAR-13-023 issued by the NINDS Office of Translational Research for R21 exploratory projects.

For `CCCC(=O)[O-].[Na+]` [NaBt, sodium butyrate], the Tfam expression (Tfam) was “induced Tfam expression on day 2”, the “optimal safe concentration for eliciting maximal mitochondrial biogenesis without cellular toxicity” value [1] was 2.5 mM and the “mitochondrial mass, morphology, and networking” value (MELAS fibroblasts [2]) was “restored normal mitochondrial mass, morphology, and networking”. For the same compound, the “subset of genes targeted” value (HDAC1-3 enzymes) was 2-5%, the “relative cellular ATP levels” value (MELAS fibroblasts [3]; 24 hours NaBt 2.5 mM) was “became more accentuated” and the “relative cellular ATP levels” value (MELAS fibroblasts [3]; first 24 hours of NaBt (2.5 mM) treatment) was “steady increase in relative cellular ATP levels”. For the same compound, the “relative cellular ATP levels” value (MELAS fibroblasts [3]; six hours NaBt 2.5 mM) was “increase in relative cellular ATP levels”, the “increased expression of OXPHOS genes” value (MELAS fibroblasts [4]; 30 genes, p<0.05) was no less than 1.5 fold and the “nuclear genes significantly regulated” value (MELAS fibroblasts [4]; NaBt) was 5%. The off-target effects (MELAS fibroblasts [4]; NaBt) was “limited off-target effects”, the “expression of nuclear genes involved in mitochondrial morphology and fusion-fission events” value (MELAS fibroblasts [4]; NaBt-treated) was “increased expression levels” and the “genes known to promote FAO” value (MELAS fibroblasts [4]; NaBt-treated) was “ten upregulated genes”. For the same compound, the “number of OXPHOS genes with increased expression” value (MELAS fibroblasts [4]; subunits of complexes II, III, IV, V, p<0.05) was 30.
